17 compounds from ChEMBL document CHEMBL1275333, “Identification of non-peptide malignant brain tumor (MBT) repeat antagonists by virtual screening of commercially available compounds” (J Med Chem, 2010) can be followed below.

Assay [1] concerns the target T1, Lethal(3)malignant brain tumor-like protein 4 (Homo sapiens, UniProt Q8NA19).
T1 sequence (Q8NA19 whole entry): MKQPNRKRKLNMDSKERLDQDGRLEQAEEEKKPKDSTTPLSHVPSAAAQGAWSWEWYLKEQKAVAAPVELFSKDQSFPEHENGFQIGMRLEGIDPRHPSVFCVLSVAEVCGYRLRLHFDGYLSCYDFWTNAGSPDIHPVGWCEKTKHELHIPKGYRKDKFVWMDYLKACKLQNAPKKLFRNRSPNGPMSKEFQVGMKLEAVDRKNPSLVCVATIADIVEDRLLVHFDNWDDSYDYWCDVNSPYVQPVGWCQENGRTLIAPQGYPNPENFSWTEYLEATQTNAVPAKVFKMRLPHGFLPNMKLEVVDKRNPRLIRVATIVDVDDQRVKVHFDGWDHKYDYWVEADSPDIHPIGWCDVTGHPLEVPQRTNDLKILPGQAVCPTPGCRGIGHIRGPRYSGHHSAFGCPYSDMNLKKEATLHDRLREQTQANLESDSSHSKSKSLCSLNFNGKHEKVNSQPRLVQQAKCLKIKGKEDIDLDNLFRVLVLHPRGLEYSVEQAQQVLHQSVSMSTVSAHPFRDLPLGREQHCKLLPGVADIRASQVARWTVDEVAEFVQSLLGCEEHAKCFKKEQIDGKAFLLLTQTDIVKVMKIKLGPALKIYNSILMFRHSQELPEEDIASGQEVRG
Nature of the assay: Inhibition of L3MBTL4 by alpha-screening.

Assay [2] is described as follows: AlphaScreen counterscreen signal interference at 100 uM.
For assay [3], the target named is T2, Lethal(3)malignant brain tumor-like protein 3 (Homo sapiens, UniProt Q96JM7).
T2 sequence (Q96JM7 whole entry): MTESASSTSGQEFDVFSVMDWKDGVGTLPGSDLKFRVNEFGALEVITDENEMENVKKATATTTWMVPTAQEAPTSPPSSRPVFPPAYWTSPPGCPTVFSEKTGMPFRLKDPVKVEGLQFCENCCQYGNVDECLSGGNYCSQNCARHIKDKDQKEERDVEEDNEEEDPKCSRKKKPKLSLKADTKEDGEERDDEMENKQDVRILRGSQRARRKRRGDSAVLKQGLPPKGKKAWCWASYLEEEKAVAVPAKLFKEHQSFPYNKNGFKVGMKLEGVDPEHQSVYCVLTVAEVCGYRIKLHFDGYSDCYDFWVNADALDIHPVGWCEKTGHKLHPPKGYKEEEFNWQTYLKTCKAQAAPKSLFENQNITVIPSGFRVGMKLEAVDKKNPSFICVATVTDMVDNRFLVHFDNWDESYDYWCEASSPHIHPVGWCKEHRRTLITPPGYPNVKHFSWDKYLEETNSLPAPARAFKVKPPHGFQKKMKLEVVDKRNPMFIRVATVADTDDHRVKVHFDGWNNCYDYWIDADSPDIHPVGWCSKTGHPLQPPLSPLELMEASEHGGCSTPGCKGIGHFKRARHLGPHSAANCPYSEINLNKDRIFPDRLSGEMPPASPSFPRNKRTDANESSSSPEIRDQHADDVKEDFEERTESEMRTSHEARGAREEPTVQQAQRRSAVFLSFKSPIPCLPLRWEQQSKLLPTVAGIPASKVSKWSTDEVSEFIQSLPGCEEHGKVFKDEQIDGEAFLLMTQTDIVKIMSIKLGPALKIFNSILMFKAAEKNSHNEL
Nature of the assay: Inhibition of L3MBTL3 by alpha-screening.

Assay [4] concerns the target T3, Lethal(3)malignant brain tumor-like protein 1 (Homo sapiens, UniProt Q9Y468).
T3 sequence (Q9Y468 whole entry): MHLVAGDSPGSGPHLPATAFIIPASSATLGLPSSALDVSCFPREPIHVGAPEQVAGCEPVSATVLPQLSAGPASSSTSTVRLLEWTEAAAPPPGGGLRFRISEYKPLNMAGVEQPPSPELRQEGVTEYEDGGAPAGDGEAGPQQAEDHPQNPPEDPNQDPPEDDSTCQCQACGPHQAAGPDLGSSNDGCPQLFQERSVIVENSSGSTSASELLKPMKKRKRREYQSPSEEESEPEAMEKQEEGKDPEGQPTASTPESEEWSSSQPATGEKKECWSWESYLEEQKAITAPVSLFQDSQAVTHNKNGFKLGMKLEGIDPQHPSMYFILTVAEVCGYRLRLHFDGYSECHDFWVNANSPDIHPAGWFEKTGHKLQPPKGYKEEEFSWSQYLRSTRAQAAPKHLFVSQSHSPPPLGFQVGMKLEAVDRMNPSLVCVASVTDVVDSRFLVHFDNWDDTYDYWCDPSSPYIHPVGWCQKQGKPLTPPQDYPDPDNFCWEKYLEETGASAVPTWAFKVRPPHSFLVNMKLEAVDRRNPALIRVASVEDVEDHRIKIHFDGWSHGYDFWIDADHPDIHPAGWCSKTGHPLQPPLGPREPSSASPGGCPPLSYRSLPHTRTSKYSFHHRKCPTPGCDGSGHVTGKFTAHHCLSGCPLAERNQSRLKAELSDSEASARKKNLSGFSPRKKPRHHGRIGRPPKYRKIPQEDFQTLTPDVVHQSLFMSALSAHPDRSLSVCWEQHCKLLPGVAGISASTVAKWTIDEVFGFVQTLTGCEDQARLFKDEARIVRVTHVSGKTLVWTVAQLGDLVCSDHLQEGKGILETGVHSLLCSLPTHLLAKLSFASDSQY
Nature of the assay: Inhibition of L3MBTL1 by alpha-screening.

The target in assay [5] is MBT domain-containing protein 1 (Homo sapiens, UniProt Q05BQ5). Nature of the assay: Inhibition of MBTD1 by alpha-screening.
MBT domain-containing protein 1, sequence (Q05BQ5 whole entry, the tested form may be a part): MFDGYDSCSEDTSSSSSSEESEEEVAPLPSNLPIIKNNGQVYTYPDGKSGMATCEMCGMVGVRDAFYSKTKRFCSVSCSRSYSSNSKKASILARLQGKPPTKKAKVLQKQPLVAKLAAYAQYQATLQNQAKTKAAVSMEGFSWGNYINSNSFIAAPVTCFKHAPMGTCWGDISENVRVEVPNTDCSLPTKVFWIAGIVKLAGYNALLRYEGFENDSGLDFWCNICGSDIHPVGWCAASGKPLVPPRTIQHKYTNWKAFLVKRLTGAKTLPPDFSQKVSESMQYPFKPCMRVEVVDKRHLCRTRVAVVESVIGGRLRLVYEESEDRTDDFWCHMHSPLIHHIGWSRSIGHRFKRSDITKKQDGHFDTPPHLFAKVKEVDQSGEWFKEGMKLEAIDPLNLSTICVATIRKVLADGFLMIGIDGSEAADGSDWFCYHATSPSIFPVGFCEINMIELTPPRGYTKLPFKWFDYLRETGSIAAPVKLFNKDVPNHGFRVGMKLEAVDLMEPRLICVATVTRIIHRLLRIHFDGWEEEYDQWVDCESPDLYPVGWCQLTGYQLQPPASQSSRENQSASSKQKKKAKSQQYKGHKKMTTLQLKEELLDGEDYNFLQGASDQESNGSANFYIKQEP

For `CN(C)CCC(=O)c1cc2c(cc1Br)OCCCO2`, the IC50 in assay [1] is 12 µM; in assay [3] it was over 100 µM; in assay [4], over 100 µM; in assay [5], over 100 µM. Besides, the Activity in assay [2] came out at 35%.

As to `CC(CCN(C)C)OC(=O)c1ccc(C(C)c2ccccc2)o1` (stereo unspecified), the IC50 was over 100 µM in assay [1], 75 µM in assay [3], 84 µM in assay [4] and 66 µM in assay [5]. Besides, the Activity in assay [2] is 22%.

Turning to `CN(C)CCC(c1ccc(Cl)cc1)c1ccccn1` (stereo unspecified) [CHLORPHENIRAMINE], the half-inhibitory concentration (IC50) in assay [5] was found to be 34 µM.

Take `CNCCCC1Sc2ccccc2Oc2ccccc21` (stereo unspecified): the IC50 in assay [1] is over 100 µM; in assay [4], 14 µM; in assay [5], over 100 µM.

Regarding `CCc1cc(OCCCCNC)ccc1Cl`, the IC50 in assay [1] is over 100 µM; in assay [4] it was 96 µM; in assay [5], over 100 µM.

For `Cc1ncc(CCCCN(C)C)c2c1[nH]c1ccccc12`, the IC50 in assay [1] was over 100 µM; in assay [3] it was 5.7 µM; in assay [4], 21 µM; in assay [5], 73 µM. In assay [2], the Activity was 15%.

For `CNCC1CCN(CCc2ccc(Cl)cc2)CC1`, the 50% inhibitory concentration (IC50) in assay [1] was over 100 µM; in assay [4], 69 µM; in assay [5], over 100 µM.

As to `CN(C)CCCNC(=O)C1(O)c2cc(Br)ccc2NC(=O)N1c1ccc(Cl)cc1` (stereo unspecified), the IC50 in assay [1] was over 100 µM; in assay [4], 52 µM; in assay [5] it was 37 µM. For the same compound, the Activity in assay [2] turned out to be 3%.

Turning to `Cc1ccc(S(=O)(=O)NCCCN2CCCC2)cc1`, the values for the IC50 in assay [1], in assay [4] and in assay [5] were over 100 µM, 17 µM and 59 µM, respectively.

Take `CNCCCC(C#N)(c1ccccc1C)C(C)C` (stereo unspecified): the concentration for half-maximal inhibition (IC50) in assay [1] is over 100 µM; in assay [3] it was over 100 µM; in assay [4], 18 µM; in assay [5] it was over 100 µM. Further, the Activity in assay [2] is 3%.

In the case of `CNCCCCOc1ccc(Cc2ccccc2)cc1`, the concentration for half-maximal inhibition (IC50) in assay [1] is over 100 µM; in assay [3], over 100 µM; in assay [4], 91 µM; in assay [5] it was over 100 µM. In addition, in assay [2], the Activity came to 8%.

`CNCCCCOc1ccc(C)cc1OC`: the 50% inhibitory concentration (IC50) was 92 µM in assay [1], 84 µM in assay [3], over 100 µM in assay [4] and over 100 µM in assay [5]. Also, the Activity in assay [2] worked out at 30%.

For the compound `CNCCC1OC(c2ccc(Cl)cc2)Cc2ccccc21` (stereo unspecified), the IC50 is 78 µM in assay [1] and over 100 µM in assay [5].

For the compound `CCN(CC)CC#CCOC(=O)C(O)(c1ccccc1)C1CCCCC1` (stereo unspecified) [OXYBUTYNIN], the IC50 in assay [1], in assay [4] and in assay [5] was over 100 µM each time.

Take `CCN(CC)CCCNS(=O)(=O)c1ccc(F)c(Cl)c1`: the IC50 in assay [1], in assay [4] and in assay [5] was over 100 µM each time. In assay [2], the Activity is 8%.

Turning to `CNCCCCc1ccccc1`, the half-inhibitory concentration (IC50) is over 100 µM in assay [1], over 100 µM in assay [3], 68 µM in assay [4] and over 100 µM in assay [5]. Moreover, the Activity in assay [2] is 5%.

For `CCN(CC)CCCNS(=O)(=O)c1cc(OC)ccc1OC`, the IC50 in assay [1] is over 100 µM; in assay [3], 48 µM; in assay [4] it was over 100 µM; in assay [5], over 100 µM. In addition, the Activity in assay [2] was -6%.
